Experimental data from US20170066717A1, “NEW PHENYLAZETIDINECARBOXYLATE OR -CARBOXAMIDE COMPOUNDS” (INVENTIVA, priority 2014, published 2017).

What was measured:
NURR-1/RXRα = biological target: T1, NURR-1/RXRα (Homo sapiens, UniProt P19793); experiment: Transactivation test, NURR-1-Gal4/RXRα, luciferase reporter in Cos-7 cells; type: cell-based; details: for Emax: COS-7, induction level relative to reference XCT0135908 at 2×10^−5 M (=100%), read-out: hNurr1_RXRaFL Emax (%); for EC50: Cos-7 cells, NURR-1-Gal4/RXRα, luciferase reporter, read-out: hNurr1_RXRaFL EC50
T1 construct: expressed in transfected cells; host or cells: Cos-7 cells
T1 sequence (P19793 whole entry, the tested form may be a part): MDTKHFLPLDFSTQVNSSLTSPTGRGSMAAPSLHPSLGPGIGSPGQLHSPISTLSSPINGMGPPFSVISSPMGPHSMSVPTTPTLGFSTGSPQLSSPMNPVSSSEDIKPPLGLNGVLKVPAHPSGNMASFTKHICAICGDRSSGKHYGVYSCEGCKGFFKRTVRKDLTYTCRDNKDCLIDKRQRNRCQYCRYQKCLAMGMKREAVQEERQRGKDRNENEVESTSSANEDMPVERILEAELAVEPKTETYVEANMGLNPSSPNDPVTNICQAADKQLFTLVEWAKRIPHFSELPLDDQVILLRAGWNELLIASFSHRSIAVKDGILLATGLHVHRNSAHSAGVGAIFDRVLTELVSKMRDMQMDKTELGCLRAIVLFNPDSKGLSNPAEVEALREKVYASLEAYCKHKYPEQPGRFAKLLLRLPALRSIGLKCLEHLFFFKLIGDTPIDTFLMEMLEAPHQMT
T1 sequence (P43354 whole entry partner, the tested form may be a part): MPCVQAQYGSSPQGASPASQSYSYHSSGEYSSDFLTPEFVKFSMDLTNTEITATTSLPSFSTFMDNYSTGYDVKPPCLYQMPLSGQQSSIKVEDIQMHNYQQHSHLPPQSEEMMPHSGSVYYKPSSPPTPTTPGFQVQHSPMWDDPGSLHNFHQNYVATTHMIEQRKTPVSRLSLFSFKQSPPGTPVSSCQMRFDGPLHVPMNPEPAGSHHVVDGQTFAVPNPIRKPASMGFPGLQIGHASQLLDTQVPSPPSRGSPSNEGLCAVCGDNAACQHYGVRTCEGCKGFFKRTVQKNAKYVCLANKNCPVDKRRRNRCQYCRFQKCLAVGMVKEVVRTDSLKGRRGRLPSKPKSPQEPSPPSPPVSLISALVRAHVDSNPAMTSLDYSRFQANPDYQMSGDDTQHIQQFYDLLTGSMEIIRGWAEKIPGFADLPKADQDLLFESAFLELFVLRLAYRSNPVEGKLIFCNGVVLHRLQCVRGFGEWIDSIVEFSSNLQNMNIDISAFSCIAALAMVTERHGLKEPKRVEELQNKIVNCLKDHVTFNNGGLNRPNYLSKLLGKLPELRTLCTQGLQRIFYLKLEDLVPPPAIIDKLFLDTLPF
T1 sequence (P04386 1-147 partner limits assumed): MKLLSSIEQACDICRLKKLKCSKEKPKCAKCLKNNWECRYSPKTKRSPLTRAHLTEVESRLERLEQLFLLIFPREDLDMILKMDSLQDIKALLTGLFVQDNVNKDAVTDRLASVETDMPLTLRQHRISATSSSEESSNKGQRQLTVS

[1] = Plasma pharmacokinetics in mice after oral administration; type: in vivo; details: mouse, male C57/Bl6 mice, oral 10 mg/kg; for AUC: sampling 15 min to 7 h, log-linear trapezoidal method, read-out: AUCplasma; for Cmax: suspension in 1% methylcellulose/0.1% Poloxamer 188
Experimental: (§1) Three series of in vivo tests were carried out with compounds representative of the invention, for the purpose of determining their pharmacokinetic plasma profile and their brain penetration.
1. Study of the Plasma Phannacokinectis in Mice After Oral Administration
Male C57/B16 mice (25-30 g) originating from the establishment Janvier, Le Genest-St-Isle, France were used for this study (9 mice per dose). The animals were fed with standard feed for rodents (Purina Mills, St. Louis, Mo.), placed in cages and subjected to light/darkness cycles of 12 h/12 h, the temperature of the room being maintained at 22±2° C. and the humidity level at 55±10%.
The mice were not deprived food before the administration. Water was provided at will throughout the study. The test compound was admistered orally at 10 mg/kg. For the oral administration at 10 mg/kg, the animals were green, by gavage, 10 mL/kg of a suspension of the test compound, prepared in 1% methylcellulose, 400 cps/0.1% Poloxamer 188/water.
The animals were sacrificed under anesthesia at times 15 min, 30 min, 1 h, 3 h and 7 h after gavage. The blood was collected at each time, and from each animal sacrificed 0.5 mL of blood collected in 1.5 mL tubes containing 20 μL of evaporated anticoagulant (solution of sodium heparinate at 1000 IU/mL) was centrifuged at 4500 g for 3 min in order to obtain approximately 200 μL of plasma. The plasma was divided up into 2 aliquots of 70 μL minimum, which were stoted at −20° C. until they were treated by protein precipitation and then analysis by liquid chromatography coupled to tandem mass spectrometry (LC-MS/MS) in order to quantify the compound tested.
The pharmacokinetic plasma parameters in the mice after oral administration were determined using a non-compartmental approach with the Phoenix WinNonLin software. The area under the curve (AUC0-1) was determined bv the log-linear trapezoidal method. The tesults are brought together in the following table.

[2] = Brain penetration in rats after intravenous administration; type: in vivo; details: rat; for Kp at 4 h: male, Wistar, intravenous, 4 mg/kg, ratio of Cmax brain to Cmax plasma after the 4 hours of infusion, rats, read-out: Kp (partition coefficient between the brain and the plasma); for Cmax at 4 h: male Wistar rats, 4 mg/kg iv infusion into the jugular vein for 4 hours, plasma at end of infusion
Experimental: as §1
2. Study of the Brain Penetration in Rats After Intravenous Administration
Male Wistar rats (250-300 g) originating from the establishment Janvier, Le Genest-St-Isle, France were used for this study (4 rats per study). The animals were fed with standard feed for rodents (Purina Mills, St. Louis, Mo.), placed in cages and subjected to light/darkness cycles of 12 h/12 h, the room temperature being maintained at 22±2° C. and the humidity level at 55±10%. The rats were not deprived food before the administration. Water was provided at will throughout the study.
The test compound was administered intravenously at 4 mg/kg by infusion into the jugular vein for 4 hours. For the intravenous administration, the animals were infused with 12 mL/kg of a solution of the test compound, prepared in 2% Cremophor EL/0.9% NaCl.
The animals were sacrificed under anesthesia after 4 hours of infusion. The blood and the brain were collected from each sacrificed animal 0.5 mL of blood collected in 1.5 mL tubes containing 20 μL of evaporated anticoagulant (solution of sodium heparinate at 1000 IU/mL) was centrifuged at 4500 g for 3 min in order to obtain approximately 200 μL of plasma. The plasma was divided up into 2 aliquots of 70 μL minimum, which were stored at −20° C. until they were treated by protein precipitation and then analysis by liquid chromatography coupled to tandem mass spectrometry (LC-MS/MS) in order to quantify the compound tested.
The brains were immersed in liquid nitrogen directly after they were removed, then stored at −20° C. for analysis. The brains were then ground in the presence of an aqueous/organic solvent mixture in order to obtain a homogenate. These homogenates were then centrifuged and the compound tested was extracted from the supernatant obtained, by liquid-liquid extraction, and then quantified by LC-MS/MS.
The brain penetration in the rats is represented by the Kp, which is the partition coefficient between the brain and the plasma. It is calculated by the ratio of the concentration measured in the brain (Cmax brain) and the plasma (Cmax plasma) after the 4 hours of infusion.

NURR-1/RXRγ = biological target: T2, NURR-1/RXRγ (Homo sapiens, UniProt P48443); experiment: Transactivation test, NURR-1-Gal4/RXRγ, luciferase reporter in Cos-7 cells; type: cell-based; details: for Emax: COS-7, induction level relative to reference XCT0135908 at 2×10^−5 M (=100%), read-out: hNurr1_RXRgFL Emax (%); for EC50: Cos-7 cells, NURR-1-Gal4/RXRγ, luciferase reporter, read-out: hNurr1_RXRgFL EC50
T2 construct: expressed in transfected cells; host or cells: Cos-7 cells
T2 sequence (P48443 whole entry, the tested form may be a part): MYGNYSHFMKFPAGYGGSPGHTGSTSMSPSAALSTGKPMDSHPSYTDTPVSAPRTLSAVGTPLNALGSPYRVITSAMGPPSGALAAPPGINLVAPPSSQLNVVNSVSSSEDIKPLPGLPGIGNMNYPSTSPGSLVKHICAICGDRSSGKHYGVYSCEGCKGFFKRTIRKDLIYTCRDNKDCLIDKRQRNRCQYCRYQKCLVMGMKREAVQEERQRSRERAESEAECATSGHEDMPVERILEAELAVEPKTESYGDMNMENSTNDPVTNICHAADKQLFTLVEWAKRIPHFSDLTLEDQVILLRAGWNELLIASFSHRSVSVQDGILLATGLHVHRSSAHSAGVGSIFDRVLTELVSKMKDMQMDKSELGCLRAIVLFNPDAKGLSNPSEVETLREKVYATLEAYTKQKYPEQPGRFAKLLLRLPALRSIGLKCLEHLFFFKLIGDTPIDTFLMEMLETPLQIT
T2 sequence (P43354 whole entry partner, the tested form may be a part): as the sequence (P43354 whole entry partner, the tested form may be a part) above
T2 sequence (P04386 1-147 partner limits assumed): as the sequence (P04386 1-147 partner limits assumed) above

[3] = tested on: dopaminergic neurons of primary culture of rat embryo mesencephalon treated with MPP+; experiment: Neuroprotection in primary culture of rat embryo mesencephalon treated with MPP+ (count of tyrosine hydroxylase expressing cells); type: cell-based; details: recombinant human BDNF 10 ng/mL = 100%, 2 days with MPP+
Experimental: Another in vitro test was carried out with the compounds according to the invention, for the purpose of verifying that the molecules indeed have the expected neuroprotective effect in vitro.
The compounds were tested in a model of primary culture of rat embryo mesencephalon treated with 1-methyl-4-phenylpyridinium (MPP+), which is the active metabolite of 1-methyl-4-phenyl-1,2,3,6-tetrahydropyridine (MPTP). MPP+ enters into dopananergic neurons via the dopamine transporter and causes the death of these dopaminergic neurons. The following protocol was used.
Gestating female rats (15 days of gestation) were euthanized and the rat embryos were removed. The mesencephalons were removed. The tissue was then dissociated mechanically and by using trypsin. The cells collected after centrifugation were distributed into 96-well plates and left to stand for 5 days. The culture conditions made it possible to obtain a cell layer composed of neurons (dopaminergic and others) and astrocytes. On the 6th day, the cells were optionally treated with MPP+ in the presence or absence of test compound. After 2 days of incubation, the cells were fixed and various cell labellings were carried out; staining of the nuclei with the Hoechst fluorescent label and immunolabelling of tyrosine hydroxylase. The cells expressing tyrosine hydroxylase were counted using an image analyzer coupled to an optical microscope.
Recombinant human BDNF trophic factor (10 ng/mL) was used as reference. The activities of the compounds are given as percentages of activity relative to the BDNF reference, the activity of which is arbitrarily defined as being equal to 100%.

| SMILES | Emax (NURR-1/RXRα) [%] | EC50 (NURR-1/RXRα) [nM] | AUC [1] [ng·h/mL] | Cmax [1] [ng/mL] | Kp at 4 h [2] | Cmax at 4 h [2] [ng/mL] | Emax (NURR-1/RXRγ) [%] | EC50 (NURR-1/RXRγ) [nM] | melting point [°C] | percentage of activity relative to the BDNF reference ([3]; compound 1 μM) [%] | percentage of activity relative to the BDNF reference ([3]; compound 10 μM) [%] |
| --- | --- | --- | --- | --- | --- | --- | --- | --- | --- | --- | --- |
| Cc1cc(-c2cc(C(C)(C)C)cc(C(C)(C)C)c2)cc(N2CC(C(=O)O)C2)c1 [Example 7, 1-[3-(3,5-di-tertbutylphenyl)-5-methylphenyl]azetidine-3-carboxylic acid] | 100 | 4 | 48600 | 12800 | 0.76 | 6750 | 97 | 6 |  | 61 | 72 |
| CC(C)(C)c1cc(-c2cccc(N3CC(C(=O)O)C3)c2)cc(C(C)(C)C)c1 [Example 11, 1[3-(3,5-di-tert-butylphenyl)phenyl]azetidine-3-carboxylic acid] | 105 | 11 | 52000 | 10300 | 1.22 | 4140 | 100 | 14 |  | 78 | 88 |
| Cc1cc(-c2ccc(Cl)c(C(F)(F)F)c2)cc(N2CC(C(=O)O)C2)c1 [Example 22, 1-[3-[4-chloro-3-(trifluoromethyl)phenyl]-5-methylphenyl]azetidine-3-carboxylic acid] | 91 | 9 | 72200 | 18600 | 0.14 | 9900 | 87 | 13 |  | 79 | 103 |
| Cc1cc(N2CC(C(=O)O)C2)cc(-n2ccc3cc(C(F)(F)F)ccc32)c1 [Example 50, 1-[3-methyl-5[5-(trifluoromethyl)indol-1-yl]phenyl]azetidine-3-carboxylic acid] | 95 | 2 | 24300 | 11400 | 0.19 | 4920 | 102 | 5 |  | 74 | 91 |
| CC1(C)CN(c2cccc(N3CC(C(=O)[O-])C3)c2)c2ccc(C(C)(C)C)cc2O1.[Na+] [Example 225, sodium 1-[3-(7-tert-butyl-2,2-dimethyl-3-H-1,4-benzoxazin-4-yl)phenyl]azetidine-3-carboxylate] | 113 | 79 | 13700 | 6430 | 0.42 | 3260 | 122 | 173 | 223 to 227 |  |  |
| CC1(C)CN(c2cccc(N3CC(C(N)=O)C3)c2)c2ccc(C(F)(F)F)cc2O1 [Example 273, 1-[3-[2,2-dimethyl-7-(trifluoromethyl)-3H-1,4-benzoxazin-4-yl]phenyl]azetidine-3-carboxamide] | 110 | 6 | 372 | 584 | 1.81 | 98 | 123 | 12 | 100 |  |  |

Second part, led by results:

| Emax (NURR-1/RXRα) [%] | EC50 (NURR-1/RXRα) [nM] | AUC [1] [ng·h/mL] | Cmax [1] [ng/mL] | Kp at 4 h [2] | Cmax at 4 h [2] [ng/mL] | Emax (NURR-1/RXRγ) [%] | EC50 (NURR-1/RXRγ) [nM] | melting point [°C] | SMILES | percentage of activity relative to the BDNF reference ([3]; compound 1 μM) [%] | percentage of activity relative to the BDNF reference ([3]; compound 10 μM) [%] |
| --- | --- | --- | --- | --- | --- | --- | --- | --- | --- | --- | --- |
| 98 | 11 | 34100 | 14100 | 0.44 | 1920 | 86 | 42 | 143 to 154 | CC(C)c1cc2c(c(-c3cccc(N4CC(C(=O)[O-])C4)c3)c1)NCC1(CCC1)O2.[Na+] [Example 196, sodium 1-[3-(7-isopropylspiro[3,4-dihydro-1,4-benzoxazine-2,1′-cyclobutane]-5-yl)phenyl]azetidine-3-carboxylate] |  |  |
| 103 | 24 | 19000 | 17500 | 0.28 | 4920 | 117 | 95 | 77 to 79 | CC(C)c1cc2c(c(-c3cccc(N4CC(C(=O)O)C4)c3)c1)NCCC2 [Example 199, 1-[3-(6-isopropyl-1,2,3,4-tetrahydroquinolin-8-yl)phenyl]azetidine-3-carboxylic acid] |  |  |
| 95 | 127 | 2920 | 3800 | 0.19 | 1010 | 78 | 244 | 74 to 79 | CC(C)c1cc2c(c(-c3cccc(N4CC(C(=O)O)C4)c3)c1)NCCC(C)(C)O2 [Example 200, 1-[3-(8-isopropyl-2,2-dimethyl-4,5-dihydro-3H-1,5-benzoxazepin-6-yl)phenyl]azetidine-3-carboxylic acid] |  |  |
| 111 | 97 | 15500 | 6970 | 0.29 | 2160 | 112 | 147 | 64 to 70 | CC(C)c1ccc2c(c1)OC(C)(C)CN2c1cccc(N2CC(C(=O)O)C2)c1 [Example 228, 1-[3-(7-isopropyl-2,2 dimethyl-3H-1,4-benzoxazin-4-yl)phenyl]azetidine-3-carboxylic acid] |  |  |
| 113 | 0.81 | 33700 | 7560 | 0.36 | 7660 | 99 | 2 | 172 to 195 | CC1(C)C=C(c2cccc(N3CC(C(=O)[O-])C3)c2)c2ccc(C(F)(F)F)cc2O1.[Na+] [Example 263, sodium 1-[3-[2,2-dimethyl-7-(trifluoromethyl)chromen-4-yl]phenyl]azetidine-3-carboxylate] |  |  |
